Reference: paper PMC3553658 (Combinatorial chemistry & high throughput screening, 2012)
“Also recorded” adds a separate entry of the source.

How the values were obtained:
Assay type in all cases: biochemical
SET8 [1] = target: T1, SET8 (Homo sapiens, UniProt Q9NQR1); assay: SPIA-bead assay; conditions: read-out: SET8 [% IHBN], SPIA primary screen, 10 μM compound, duplicate
T1 sequence (Q9NQR1 191-352 isoform Q9NQR1-2): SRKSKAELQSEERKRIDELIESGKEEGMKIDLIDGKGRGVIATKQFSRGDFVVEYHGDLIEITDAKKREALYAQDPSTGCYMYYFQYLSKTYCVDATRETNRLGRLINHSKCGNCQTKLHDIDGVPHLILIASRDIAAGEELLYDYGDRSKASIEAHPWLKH

SETD2 [2] = target: T2, SETD2 (Homo sapiens, UniProt Q9BYW2); assay: SPIA-bead assay; conditions: SPIA primary screen, 10 μM compound, duplicate
T2 sequence (Q9BYW2 1347-1711): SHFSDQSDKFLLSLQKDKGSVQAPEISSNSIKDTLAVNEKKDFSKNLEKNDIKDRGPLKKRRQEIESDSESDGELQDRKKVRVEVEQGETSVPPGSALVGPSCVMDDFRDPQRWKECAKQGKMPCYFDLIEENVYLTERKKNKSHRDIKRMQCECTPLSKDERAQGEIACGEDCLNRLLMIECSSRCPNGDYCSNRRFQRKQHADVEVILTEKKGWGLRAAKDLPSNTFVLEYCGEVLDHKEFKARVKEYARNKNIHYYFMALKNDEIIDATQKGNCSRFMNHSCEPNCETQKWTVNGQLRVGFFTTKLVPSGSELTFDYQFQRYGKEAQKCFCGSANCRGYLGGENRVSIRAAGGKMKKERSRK

SET7/9 [3] = target: T3, SET7/9 (Homo sapiens, UniProt Q8WTS6); assay: Filter-paper assay dose response, SET7/9; conditions: up to 100 μM
T3 sequence (Q8WTS6 1-366): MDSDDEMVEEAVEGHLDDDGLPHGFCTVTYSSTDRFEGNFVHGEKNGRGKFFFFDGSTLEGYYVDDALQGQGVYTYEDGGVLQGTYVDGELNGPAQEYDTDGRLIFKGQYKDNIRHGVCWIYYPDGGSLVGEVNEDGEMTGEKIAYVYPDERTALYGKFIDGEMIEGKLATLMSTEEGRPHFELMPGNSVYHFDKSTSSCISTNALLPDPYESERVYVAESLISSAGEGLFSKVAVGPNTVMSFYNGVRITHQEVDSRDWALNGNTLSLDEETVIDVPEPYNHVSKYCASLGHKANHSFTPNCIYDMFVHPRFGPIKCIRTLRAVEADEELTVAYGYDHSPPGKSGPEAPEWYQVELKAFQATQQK

SET8 [4] = target: T1, SET8; assay: Filter-paper assay dose response, SET8; conditions: up to 100 μM
SETD2 [5] = target: T2, SETD2; assay: Filter-paper assay dose response, SETD2; conditions: up to 100 μM
EuHMTase1 = target: T4, EuHMTase1 (Homo sapiens, UniProt Q9H9B1); assay: Filter-paper assay dose response, EuHMTase1; conditions: up to 100 μM
T4 sequence (Q9H9B1 982-1266): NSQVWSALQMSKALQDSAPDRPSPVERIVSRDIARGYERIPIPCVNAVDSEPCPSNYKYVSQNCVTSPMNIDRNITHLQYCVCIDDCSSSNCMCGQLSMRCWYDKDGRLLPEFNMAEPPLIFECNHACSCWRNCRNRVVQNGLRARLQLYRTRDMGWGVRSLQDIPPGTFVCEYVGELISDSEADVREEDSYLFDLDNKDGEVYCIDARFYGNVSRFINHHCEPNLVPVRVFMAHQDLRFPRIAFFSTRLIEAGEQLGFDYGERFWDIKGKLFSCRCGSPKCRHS

SET7/9 [6] = target: T3, SET7/9; assay: SPIA-bead assay; conditions: SPIA primary screen, 10 μM compound, duplicate

SET7/9 [% IHBN] (SET7/9 [6]) [%]	Compound	inhibition at 10 µM (SET8 [1]) [%]	SETD2 [% IHBN] (SETD2 [2])	Inhibition of SET7/9 in filter-paper assay (SET7/9 [3])	Inhibition of SET8 in filter-paper assay (SET8 [4])	Inhibition of SETD2 in filter-paper assay (SETD2 [5])	Inhibition of EuHMTase1 in filter-paper assay (EuHMTase1)
	O=C(O)CCCC[C@@H]1SC[C@@H]2NC(=O)N[C@@H]21 [Biotin]	60 to 90	60–90%	no inhibition; also recorded: did not find inhibition	no inhibition; also recorded: did not find inhibition	no inhibition; also recorded: did not find inhibition	no inhibition; also recorded: did not find inhibition
83	O=C(Nc1ccc(C(=O)Nc2ccc(C(=O)Nc3ccc(S(=O)(=O)[O-])c4cc(S(=O)(=O)[O-])cc(S(=O)(=O)[O-])c34)cc2)cc1)Nc1ccc(C(=O)Nc2ccc(C(=O)Nc3ccc(S(=O)(=O)[O-])c4cc(S(=O)(=O)[O-])cc(S(=O)(=O)[O-])c34)cc2)cc1.[Na+].[Na+].[Na+].[Na+].[Na+].[Na+] [NF 279, 8,8′-[Carbonylbis(imino-4,1-phenylenecarbonylimino-4,1-phenylenecarbonylimino)]bis-1,3,5-naphtlenetrisulfonic acid hexasodium salt]						
